Experimental data as given in PMC4274894, “The poplar Phi class glutathione transferase: expression, activity and structure of GSTF1” (Frontiers in Plant Science, 2014).
Like-named read-outs stand apart in the source and are kept apart here. Values belong to the molecule of their own block, whether it stands above or below them.

Assays:
PttGSTF1 [1] = biological target: T1, PttGSTF1 (Populus trichocarpa, UniProt A9PHH6); experiment: spectrophotometric GSH-conjugation assay ([…] nm), Michaelis-Menten fit; format: biochemical; details: apparent Km; 0.7 mM GSH; 100 mM phosphate pH 6.5; 25°C; read-out: HNE
T1 construct: initiator Met cleaved, residues Ala2-Ala215; 24192 Da (WT); homodimer; differs from the P. trichocarpa GSTF1 by Val33 (Ile) and Arg86 (Lys)

PttGSTF1 [2] = biological target: T1, PttGSTF1; experiment: as above; format: biochemical; details: apparent Km; 1 mM GSH; 100 mM sodium phosphate pH 7.5; 25°C; read-out: PNP-butyrate
PttGSTF1 [3] = biological target: T2, PttGSTF1 (Populus trichocarpa, UniProt A9PHH6, S13A, form not given); experiment: as above; format: biochemical; details: apparent Km; 1 mM GSH; 100 mM sodium phosphate pH 7.5; 25°C; read-out: PNP-butyrate
T2 construct: initiator Met cleaved, residues Ala2-Ala215; 24192 Da (WT); homodimer; differs from the P. trichocarpa GSTF1 by Val33 (Ile) and Arg86 (Lys)

[4] = biological target: Populus tremula × P. tremuloides glutathione transferase Phi 1 (PttGSTF1) (Populus tremula × P. tremuloides); experiment: SEC; calibrated Superdex 200 10/300, 30 mM Tris-HCl pH 8.0, 200 mM NaCl, 100 μg of purified protein injected, 0.5 ml/min; standards 6500-700,000 Da
[5] = biological target: PttGSTF1 S13A (Populus tremula × P. tremuloides); experiment: as above
[6] = biological target: PttGSTF1 S13C (Populus tremula × P. tremuloides); experiment: as above

T1 sequence (A9PHH6 entry or part of it): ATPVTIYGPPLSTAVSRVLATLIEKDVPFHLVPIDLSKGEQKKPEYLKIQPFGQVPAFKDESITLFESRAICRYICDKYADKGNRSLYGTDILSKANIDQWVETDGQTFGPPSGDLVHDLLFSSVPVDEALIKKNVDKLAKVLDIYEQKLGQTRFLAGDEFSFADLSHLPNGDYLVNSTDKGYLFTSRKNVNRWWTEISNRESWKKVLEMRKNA
T2 sequence (A9PHH6 entry or part of it S13A, form open): as the sequence (A9PHH6 entry or part of it) above, with S12A counted along it

Molecule: CCCCCC(O)/C=C/C=O (stereo not drawn) [HNE, 4-hydroxy-2-nonenal]
Km (PttGSTF1 [1]): 67.1 ± 6.6 µM

Molecule: CCCC(=O)Oc1ccc([N+](=O)[O-])cc1 [PNP-butyrate]
Km (PttGSTF1 [2]): 360 ± 32.2 µM
Km (PttGSTF1 [3]): 1510 ± 120 µM

Molecule: PttGSTF1 S13C (enzyme)
stoichiometry N [6]: 2

Other lines, results leading:

stoichiometry N [4]: 2
Molecule: Populus tremula × P. tremuloides glutathione transferase Phi 1 (PttGSTF1) (enzyme)

stoichiometry N [5]: 2
Molecule: PttGSTF1 S13A (enzyme)
